Laboratory results taken from patent US20260109694A1, “HETEROCYCLIC COMPOUNDS AND USES THEREOF” (Kumquat Biosciences Inc., priority 2023, published 2026).

Tests used:
PTP1B = biological target: T1, PTP1B (Homo sapiens, UniProt P18031); assay: Phosphatase activity assay (DiFMUP substrate); assay type: biochemical; details: value bin printed in column head
T1 sequence (P18031 1-435): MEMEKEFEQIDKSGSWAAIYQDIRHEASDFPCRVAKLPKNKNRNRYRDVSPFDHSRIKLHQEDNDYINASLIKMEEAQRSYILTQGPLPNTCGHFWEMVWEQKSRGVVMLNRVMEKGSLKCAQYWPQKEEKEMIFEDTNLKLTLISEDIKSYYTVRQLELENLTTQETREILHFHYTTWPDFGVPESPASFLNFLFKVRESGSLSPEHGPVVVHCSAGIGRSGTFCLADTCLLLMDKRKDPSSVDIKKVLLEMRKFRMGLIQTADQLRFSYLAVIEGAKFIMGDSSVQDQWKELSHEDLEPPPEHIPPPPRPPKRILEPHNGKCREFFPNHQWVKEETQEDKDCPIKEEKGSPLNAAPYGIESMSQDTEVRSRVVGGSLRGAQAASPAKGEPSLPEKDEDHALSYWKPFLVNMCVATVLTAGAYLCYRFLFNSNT
Method: (§1) The selectivity and potency of a small molecule PTPN2 inhibitor as provided herein against one or more protein tyrosine phosphatase (PTP) enzymes, and specifically against PTPN2, is assessed in various ways. The one or more PTP enzymes comprise Mycobacterium protein tyrosine phosphatase A (mPTPA), Mycobacterium protein tyrosine phosphatase B (mPTPB), PTPN1 (i.e., PTP1B), PTPN2 (i.e., TC-PTP), PTPN22 (i.e., LYP), SHP-1, SHP-2, FAP-1, Meg2, HePTP, Laforin, VHX, VHR, LMWPTP, Cdc14A, LAR, CD45, PTPRG, a fragment thereof, a variant thereof, and a combination thereof. Selectivity and potency of a small molecule PTPN2 inhibitor is evaluated using a PTP activity inhibition assay. The assay is performed using a buffer comprising 50 mM HEPES buffer pH 7.5, 150 mM NaCl, 0.5 mM EDTA, 1 mM DTT, 0.001% Tween-20.
(§2) The assay is performed using a phosphated substrate, e.g., 10 mM 6,8-Difluoro-4-Methylumbelliferyl Phosphate (DIFMUP) that is stored at −20° C. Alternatively or in addition to, the assay is performed using other phosphated substrate (e.g., fluorescein diphosphate). Each PTP enzyme is diluted in the assay buffer
(§3) The assay can be carried out at room temperature in multiplate format, e.g., using 384 well plates. A small molecule PTPN2 inhibitor dissolved in DMSO at one of 10 concentrations from a serial dilution or DMSO alone for control is added to each well. A mixture of the assay buffer comprising PTP enzyme (e.g., 0.025 ng/ul PTPN2) is added to each well and mixed for approximately 2 minutes. The reaction is initiated by adding DiFMUP diluted in the assay buffer to a final concentration of approximately 45 µM DiFMUP in PTPN2 assay. For each PTP enzyme, DiFMUP is added at the Km (Michaelis constant) of the enzyme that had been independently determined. The phosphatase activity of the PTP enzyme is assessed by monitoring appearance of a fluorescent product (6,8-difluoro-7-hydroxyl-4-coumarin (DiFMU) from DiFMUP) continuously for about 15 to 30 minutes, using the INFINITE M1000Pro plate reader (Tecan) with excitation at 360 nm and emission at 450 nm (cutoff filter at 435 nm) for DiFMU. Each assay is performed at least in duplicate. The rate (e.g., the initial rate) of DiFMU formation is plotted against the concentration of the small molecule PTPN2 inhibitor, and the data is fitted (e.g., using a 4-parameter equation) to determine the inflection point of the fit as the IC50 of the small molecule PTPN2 inhibitor for a specific enzyme. Utilizing this assay, the ability of the compounds in Table 1 to inhibit PTPN2 and PTP1B has been assessed. Table 3 summarizes the IC50 values.

PTPN2 = biological target: T2, PTPN2 (Homo sapiens, UniProt P17706); assay: Phosphatase activity assay (DiFMUP substrate); assay type: biochemical; details: value bin printed in column head
T2 sequence (P17706 1-415): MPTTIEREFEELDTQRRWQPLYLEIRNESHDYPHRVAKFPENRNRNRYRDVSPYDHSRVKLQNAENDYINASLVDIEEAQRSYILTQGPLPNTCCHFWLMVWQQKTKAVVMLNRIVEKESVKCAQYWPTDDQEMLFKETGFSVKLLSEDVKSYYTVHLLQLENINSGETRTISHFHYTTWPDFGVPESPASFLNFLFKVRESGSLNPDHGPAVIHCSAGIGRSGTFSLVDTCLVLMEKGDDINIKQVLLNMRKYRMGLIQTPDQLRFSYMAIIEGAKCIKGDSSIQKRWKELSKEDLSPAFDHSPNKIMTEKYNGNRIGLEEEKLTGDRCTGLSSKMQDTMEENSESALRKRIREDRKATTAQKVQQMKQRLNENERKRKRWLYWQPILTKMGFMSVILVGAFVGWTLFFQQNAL
Method: as §1, §2, §3

| Compound | IC50 (PTP1B) [nM] | IC50 (PTPN2) [nM] |
| --- | --- | --- |
| CC1(C)CC1CCC1C=C(c2ccc(O)c(N3CC(=O)NS3(=O)=O)c2F)CN1 (stereo not drawn) [Compound 115, 5-(3-(5-(2-(2,2-dimethylcyclopropyl)ethyl)-2,5-dihydro-1H-pyrrol-3-yl)-2-fluoro-6-hydroxyphenyl)-1,2,5-thiadiazolidin-3-one 1,1-dioxide] | ≤ 1000 | ≤ 1000 |
| O=C1CN(c2c(O)ccc(C3=CC(CCC4CCC4)NC3)c2F)S(=O)(=O)N1 (racemic) [Compound 106, 5-(3-(5-(2-cyclobutylethyl)-2,5-dihydro-1H-pyrrol-3-yl)-2-fluoro-6-hydroxyphenyl)-1,2,5-thiadiazolidin-3-one 1,1-dioxide] | ≤ 1000 | ≤ 1000 |
| CC(=O)OC(C)OC(=O)N1CC(c2ccc(O)c(N3CC(=O)NS3(=O)=O)c2F)=C[C@H]1CCC1CC1 (stereo partly drawn) [Compound 121, 1-acetoxyethyl (2R)-2-(2-cyclopropylethyl)-4-(3-(1,1-dioxido-4-oxo-1,2,5-thiadiazolidin-2-yl)-2-fluoro-4-hydroxyphenyl)-2,5-dihydro-1H-pyrrole-1-carboxylate] | ≤ 1000 | ≤ 1000 |
| CC(C)CC[C@H]1C=C(c2ccc(O)c(N3CC(=O)NS3(=O)=O)c2F)CN1C(=O)OC(C)OC(=O)C(C)C (stereo partly drawn) [Compound 165, 1-(isobutyryloxy)ethyl (2S)-4-(3-(1,1-dioxido-4-oxo-1,2,5-thiadiazolidin-2-yl)-2-fluoro-4-hydroxyphenyl)-2-isopentyl-2,5-dihydro-1H-pyrrole-1-carboxylate] | ≤ 1000 | ≤ 1000 |
| O=C1CN(c2c(O)ccc(C3=CC(CCCC(F)F)NC3)c2F)S(=O)(=O)N1 (stereo not drawn) [Compound 137, 5-(3-(5-(4,4-difluorobutyl)-2,5-dihydro-1H-pyrrol-3-yl)-2-fluoro-6-hydroxyphenyl)-1,2,5-thiadiazolidin-3-one 1,1-dioxide] | ≤ 1000 | ≤ 1000 |
| CC(C)(C)CC[C@@H]1C=C(c2ccc(O)c(N3CC(=O)NS3(=O)=O)c2F)CN1 [Compound 110, (R)-5-(3-(5-(3,3-dimethylbutyl)-2,5-dihydro-1H-pyrrol-3-yl)-2-fluoro-6-hydroxyphenyl)-1,2,5-thiadiazolidin-3-one 1,1-dioxide] | ≤ 1000 | ≤ 1000 |
| O=C1CN(c2c(O)cc(C3CCCNC3)cc2F)S(=O)(=O)N1 (stereo not drawn) [Compound 138, 5-(2-fluoro-6-hydroxy-4-(piperidin-3-yl)phenyl)-1,2,5-thiadiazolidin-3-one 1,1-dioxide] | ≤ 1000 | ≤ 1000 |
| O=C1CN(c2c(O)ccc(CC3CCNC3)c2F)S(=O)(=O)N1 (stereo not drawn) [Compound 141, 5-(2-fluoro-6-hydroxy-3-(pyrrolidin-3-ylmethyl)phenyl)-1,2,5-thiadiazolidin-3-one 1,1-dioxide] | ≤ 1000 | ≤ 1000 |
| CC(C)(C)CC[C@H]1C=C(c2ccc(O)c(N3CC(=O)NS3(=O)=O)c2F)CN1 [Compound 120, (S)-5-(3-(5-(3,3-dimethylbutyl)-2,5-dihydro-1H-pyrrol-3-yl)-2-fluoro-6-hydroxyphenyl)-1,2,5-thiadiazolidin-3-one 1,1-dioxide] | ≤ 1000 | ≤ 1000 |
| CC(C)[C@H](N)C(=O)NCC(=O)N1CC(c2ccc(O)c(N3CC(=O)NS3(=O)=O)c2F)=C[C@H]1CCC1CCC1 [Compound 144, (S)-2-amino-N-(2-((R)-2-(2-cyclobutylethyl)-4-(3-(1,1-dioxido-4-oxo-1,2,5-thiadiazolidin-2-yl)-2-fluoro-4-hydroxyphenyl)-2,5-dihydro-1H-pyrrol-1-yl)-2-oxoethyl)-3-methylbutanamide] | ≤ 1000 | ≤ 1000 |
| CCC[C@@H]1C=C(c2ccc(O)c(N3CC(=O)NS3(=O)=O)c2F)CN1 [Compound 114, (R)-5-(2-fluoro-6-hydroxy-3-(5-propyl-2,5-dihydro-1H-pyrrol-3-yl)phenyl)-1,2,5-thiadiazolidin-3-one 1,1-dioxide] | ≤ 1000 | ≤ 1000 |
| CC(C)C(=O)OCOc1ccc(C2=C[C@@H](CCC3CCC3)NC2)c(F)c1N1CC(=O)NS1(=O)=O [Compound 160, (R)-(4-(5-(2-cyclobutylethyl)-2,5-dihydro-1H-pyrrol-3-yl)-2-(1,1-dioxido-4-oxo-1,2,5-thiadiazolidin-2-yl)-3-fluorophenoxy)methyl isobutyrate] | ≤ 1000 | ≤ 1000 |
| CC(C)[C@@H](N)C(=O)NCC(=O)N1CC(c2ccc(O)c(N3CC(=O)NS3(=O)=O)c2F)=C[C@H]1CCC1CCC1 [Compound 149, (R)-2-amino-N-(2-((R)-2-(2-cyclobutylethyl)-4-(3-(1,1-dioxido-4-oxo-1,2,5-thiadiazolidin-2-yl)-2-fluoro-4-hydroxyphenyl)-2,5-dihydro-1H-pyrrol-1-yl)-2-oxoethyl)-3-methylbutanamide] | ≤ 1000 | ≤ 1000 |
| CC(OC(=O)C(C)C)OC(=O)N1CC(c2ccc(O)c(N3CC(=O)NS3(=O)=O)c2F)=C[C@H]1CCC1CCC1 (stereo partly drawn) [Compound 156, 1-(isobutyryloxy)ethyl (2R)-2-(2-cyclobutylethyl)-4-(3-(1,1-dioxido-4-oxo-1,2,5-thiadiazolidin-2-yl)-2-fluoro-4-hydroxyphenyl)-2,5-dihydro-1H-pyrrole-1-carboxylate] | ≤ 1000 | ≤ 1000 |
| CC(C)OC(=O)N1CC(c2ccc(O)c(N3CC(=O)NS3(=O)=O)c2F)=C[C@H]1CCC1CCC1 [Compound 166, isopropyl (R)-2-(2-cyclobutylethyl)-4-(3-(1,1-dioxido-4-oxo-1,2,5-thiadiazolidin-2-yl)-2-fluoro-4-hydroxyphenyl)-2,5-dihydro-1H-pyrrole-1-carboxylate] | ≤ 1000 | ≤ 1000 |
| CC(C)CC[C@H]1C=C(c2ccc(O)c(N3CC(=O)NS3(=O)=O)c2F)CN1C(=O)OC(OC(=O)[C@H](N)C(C)C)C(C)C (stereo partly drawn) [Compound 146, 1-((D-valyl)oxy)-2-methylpropyl (2S)-4-(3-(1,1-dioxido-4-oxo-1,2,5-thiadiazolidin-2-yl)-2-fluoro-4-hydroxyphenyl)-2-isopentyl-2,5-dihydro-1H-pyrrole-1-carboxylate] | ≤ 1000 | ≤ 1000 |
| CC(C)CC[C@H]1C=C(c2ccc(O)c(N3CC(=O)NS3(=O)=O)c2F)CN1C(=O)OC(C)OC(=O)C1CCCC1 (stereo partly drawn) [Compound 153, 1-((cyclopentanecarbonyl)oxy)ethyl (2S)-4-(3-(1,1-dioxido-4-oxo-1,2,5-thiadiazolidin-2-yl)-2-fluoro-4-hydroxyphenyl)-2-isopentyl-2,5-dihydro-1H-pyrrole-1-carboxylate] | > 1000 | > 1000 |
| O=C1CN(c2c(O)ccc(C(=O)NC3CNC3)c2F)S(=O)(=O)N1 [Compound 124, N-(azetidin-3-yl)-3-(1,1-dioxido-4-oxo-1,2,5-thiadiazolidin-2-yl)-2-fluoro-4-hydroxybenzamide] | > 1000 | > 1000 |
